# Reference: patent publication US20130196980A1, “[…], […] AND THERAPEUTIC AGENT FOR FIBROMYALGIA” (AXIS INC., priority 2010, published 2013)
# Tested on: anti-VGKC complex antibody positive patient with fibromyalgia
# Assay: Pain-relieving experiment by an anticonvulsant agent (patient pain VAS)
# Format: in vivo, human
# Details: patient B; clonazepam 1.5 mg orally; non-depression type fibromyalgia, anti-VGKC complex antibody more than 100 pM
# Description: Pain-relieving experiments by an anticonvulsant agent for each anti-VGKC complex antibody positive patient with fibromyalgia
# It is considered that the pain can be relieved by an anticonvulsant agent for an anti-VGKC complex antibody positive patient with fibromyalgia. Thus, for 3 patients (to whom a level of anti-VGKC complex antibody of more than 100 pM was detected) among 4 anti-VGKC complex antibody positive patients with fibromyalgia in Example 1, a pain-relieving experiment by an anticonvulsant agent for an anti-VGKC complex antibody positive patient with fibromyalgia was conducted. These patients were patients with fibromyalgia of non-depression type.
# To patient A, gabapentine 900 mg and clonazepam 0.5 mg were orally administered. As a result, the value of patient pain VAS was reduced to 40 based on 100 before administration.
# To patient B, clonazepam 1.5 mg was orally administered. As a result, the value of patient pain VAS was reduced to 30 based on 100 before administration.
# To patient C, gabapentine 1600 mg and clonazepam 1.0 mg were orally administered. As a result, the value of patient pain VAS was reduced to 20 based on 100 before administration.
smiles,measurement,value
O=C1CN=C(c2ccccc2Cl)c2cc([N+](=O)[O-])ccc2N1 [clonazepam],"value of patient pain VAS after administration, based on 100 before administration",30
